Laboratory results taken from patent US20120058541A1, “ENGINEERING RESISTANCE TO ALIPHATIC ALCOHOLS” (BUTAMAX(TM) ADVANCED BIOFUELS LLC, priority 2009, published 2012).

System: L. plantarum PN0512
Protocol: IC50 values were determined in shake flasks as follows. Duplicate glass test tubes containing 5 ml MRS medium plus 10 μg/ml chloramphenicol (MRS-Cm) were each inoculated with a single colony and grown for 24 h at 30° C. in a rollerdrum. 500 μl of each of these cultures were used to inoculate 25 ml MRS-Cm, which was grown for 16 h at 30° C. with shaking at 110 rpm. […] Cultures were grown at 30° C. with shaking at 110 rpm, and growth was measured by monitoring OD600. OD600 values that were clearly off the growth curve were discarded (less than 1% of values were discarded).
This is mathematically equivalent to drawing a line between (C1,I1) and (C2,I2) and finding the concentration at which that line intersects I=50%. An IC50 was calculated for each set of flasks inoculated from the same preculture. An average IC50 was also calculated.

SMILES: CCCCO [Strain 1-butanol, 1-butanol]
- 1-butanol IC90: 2.3%
